22 compounds from patent US7563813B2, “Iminothiazolidinone derivatives as SFRP-1 antagonists” (Wyeth, priority 2005, dated 2009) can be followed below.

The data set concerns the target T1, hSFRP-1 (Homo sapiens, UniProt Q8N474).
T1 construct: expressed in transfected cells; host or cells: U2OS osteosarcoma cells (ATCC, HTB 96), transient co-transfection with Wnt 3, Wnt3A or Wnt 1, 16x TCF-tk-Luciferase reporter and CMV-beta-gal
T1 sequence (Q8N474 32-314): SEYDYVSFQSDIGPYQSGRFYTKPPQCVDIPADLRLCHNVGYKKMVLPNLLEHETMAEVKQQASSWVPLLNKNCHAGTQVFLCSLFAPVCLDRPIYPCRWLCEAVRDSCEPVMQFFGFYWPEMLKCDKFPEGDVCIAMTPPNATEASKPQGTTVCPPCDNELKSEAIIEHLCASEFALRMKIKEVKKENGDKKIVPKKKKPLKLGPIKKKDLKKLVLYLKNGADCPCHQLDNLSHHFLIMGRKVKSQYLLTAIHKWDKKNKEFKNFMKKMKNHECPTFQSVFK
Nature of the data set: Cell-Based Assay for In Vitro Measurement of SFRP-1/SARP2 Antagonist Activity (U2OS cells, 16x TCF-tk-Luciferase reporter, Wnt + hSFRP-1 co-transfection). Conditions: initial single dose screening at 10 μM; for Ratio: ratio not defined. The method, then: Cell-Based Assay for In Vitro Measurement of SFRP-1/SARP2 Antagonist Activity
The following cell-based assay can be used to identify inhibitors of SFRP-1.
The osteosarcoma cell line, U2OS (ATCC, HTB 96), was passaged twice a week with growth medium (McCoy's SA medium containing 10% (v/v) fetal calf serum, 2 mM GlutaMAX-1, and 1% (v/v) Penicillin-Streptomycin). The cells were maintained in vented flasks at 37° C. inside a 5% CO2/95% humidified air incubator. One day prior to transfection, the cells were plated with growth medium at 25,000 cells/well into 96-well plates and incubated at 37° C. overnight.
The growth medium was removed, and the cells were washed once with OPTIMEM I (Gibco-BRL) medium (100 μl/well) to remove the serum and antibiotics. The wash medium was removed, and the cells were re-fed with OPTI-MEM I medium (100 μl/well). For each well of cells to be transfected, the following DNA's were diluted together in 25 μl OPTI-MEM I medium: 0.1 μg 16× TCF-tk-Luciferase reporter, 0.02 μg Wnt 3, Wnt3A, Wnt 1 or empty vector (Upstate Biotechnology), 0.075 μg hSFRP-1 or empty vector (pcDNA3.1, Invitrogen), and 0.025 μg CMV-®gal (Clonetech). For each well of cells to be transfected, 1 μl of Lipofectamine 2000 reagent (Invitrogen) was diluted in 25 μl OPTI-MEM I medium and incubated at room temperature for 5 minutes. The diluted DNA's were then combined with the diluted Lipofectamine 2000 (LF2000), and the mixture was incubated at room temperature for 20 minutes. Fifty μl of the DNA-LF 2000 mixture was added to each well, and the plate(s) were incubated at 37° C. in a 5% CO2/95% humidified air incubator for 4 hours. The cells were washed once with 150 μl/well of experimental medium (phenol red-free RPMI Medium 1640 containing 2% fetal bovine serum, 2 mM GlutaMAX-1, and 1% Penicillin-Streptomycin). Finally, the cells were treated overnight at 37° C. with 200 μl/well of experimental medium containing either vehicle (typically DMSO) or diluted compound in replicates of 8 wells/compound.
Initial single dose screening of test compounds was done at 10 μM.
Dose-response experiments were initially performed with the compounds in log increases from 1-10,000 nM. From these dose-response curves, EC50 values were generated.
After treatment, the cells were washed twice with 150 μl/well of PBS without calcium or magnesium and were lysed with 50 μl/well of 1× cell culture lysis reagent (Promega Corporation) on a shaker at room temperature for 30 minutes. Thirty μl aliquots of the cell lysates were transferred to 96-well luminometer plates, and luciferase activity was measured in a MicroLumat PLUS luminometer (EG&G Berthold), or a Victor (PerkinElmer Life Sciences) using […] of luciferase substrate (Promega Corporation). Following the injection of substrate, luciferase activity was measured for 10 seconds after a 1.6 second delay. Similarly, 10 μl aliquots of the cell lysates were transferred to separate 96-well luminometer plates, and 50 μl of Galacton chemiluminescent substrate (Tropix) was added to each well. The plates were covered and incubated on a rotary shaker at room temperature for one hour. ®gal activity was measured in a MicroLumat PLUS luminometer or Victor using 100 μl/well of Light Emission Accelerator (Tropix). Following the injection of the accelerator, ®gal activity was measured for 10 seconds after a 1.6 second delay. The luciferase and ®gal activity data were transferred from the luminometer to a PC and analyzed using the SAS/Excel program. After the luciferase activity was normalized to ®gal, the SAS/Excel program was used to determine the mean and standard deviation of each treatment, to analyze the data for statistical significance, and to determine EC50 values.
As an alternative to co-transfection in a 96 well plate, the U2OS cells were transfected in T225 flasks and the transfected cells were frozen. The frozen cells were thawed and plated on a 96 well plate and the assay was carried out as detailed above. […]
(A reporter such as luciferase makes a cellular process visible.)

Where [1] appears, read: luciferase reporter activity, fold induction over SFRP-1 control.

The fold induction is the signal under treatment as a multiple of the control signal. For the compound `N=C1NC(=O)C(CC(=O)Nc2cccc(C(=O)c3ccccc3)c2)S1` (centres unmarked) [Example 27, N-(3-benzoylphenyl)-2-(2-imino-4-oxo-1,3-thiazolidin-5-yl)acetamide], the Ratio is on record as 1.5. The fold induction at 10 µM under setting [1] worked out at 1.8.

Consider `N=C1NC(=O)C(CC(=O)Nc2cccc(Cl)c2Cl)S1` (centres unmarked) [Example 28, N-(2,3-dichlorophenyl)-2-(2-imino-4-oxo-1,3-thiazolidin-5-yl)acetamide], for which the Ratio was 1.0. In addition, under setting [1], the fold induction at 10 µM was found to be 1.2.

As for `N=C1NC(=O)C(CC(=O)Nc2cccc([N+](=O)[O-])c2)S1` (centres unmarked) [Example 29, 2-(2-imino-4-oxo-1,3-thiazolidin-5-yl)-N-(3-nitrophenyl)acetamide], the Ratio was determined as 1.4. Also, the fold induction at 10 µM under setting [1] is 1.7.

For `CC(=O)c1cccc(NC(=O)CC2SC(=N)NC2=O)c1` (centres unmarked) [Example 30, N-(3-acetylphenyl)-2-(2-imino-4-oxo-1,3-thiazolidin-5-yl)acetamide], the Ratio stood at 1.1. Besides, under setting [1], the fold induction at 10 µM amounted to 1.2.

Consider `N=C1NC(=O)C(CC(=O)Nc2cccc(OC(F)(F)F)c2)S1` (centres unmarked) [Example 31, 2-(2-imino-4-oxo-1,3-thiazolidin-5-yl)-N-[3-(trifluoromethoxy)phenyl]acetamide], for which the Ratio was 1.5. Besides, the fold induction at 10 µM under setting [1] turned out to be 1.7.

On to `N=C1NC(=O)C(CC(=O)Nc2sc3c(c2C(N)=O)CCCC3)S1` (centres unmarked) [Example 32, 2-{[(2-imino-4-oxo-1,3-thiazolidin-5-yl)acetyl]amino}-4,5,6,7-tetrahydro-1-benzothiophene-3-carboxamide], for which the Ratio amounted to 1.1. Also, the fold induction at 10 µM under setting [1] came out at 1.

For `CCOC(=O)c1cc(CC)sc1NC(=O)CC1SC(=N)NC1=O` (centres unmarked) [Example 33, ethyl 5-ethyl-2-{[(2-imino-4-oxo-1,3-thiazolidin-5-yl)acetyl]amino}thiophene-3-carboxylate], the Ratio was found to be 1.7. In addition, under setting [1], the fold induction at 10 µM was found to be 1.5.

Regarding `COC(=O)c1ccsc1NC(=O)CC1SC(=N)NC1=O` (centres unmarked) [Example 34, methyl 2-{[(2-imino-4-oxo-1,3-thiazolidin-5-yl)acetyl]amino}thiophene-3-carboxylate], the Ratio stood at 1.3. In addition, the fold induction at 10 µM under setting [1] worked out at 1.2.

Regarding `CCOC(=O)c1c(NC(=O)CC2SC(=N)NC2=O)sc2c1CCCC2` (centres unmarked) [Example 35, ethyl 2-{[(2-imino-4-oxo-1,3-thiazolidin-5-yl)acetyl]amino}-4,5,6,7-tetrahydro-1-benzothiophene-3-carboxylate], the Ratio is 1.6. For the same compound, the fold induction at 10 µM under setting [1] turned out to be 1.4.

Turning to `CCOC(=O)c1c(NC(=O)CC2SC(=N)NC2=O)sc2c1CCCCC2` (centres unmarked) [Example 36, ethyl 2-{[(2-imino-4-oxo-1,3-thiazolidin-5-yl)acetyl]amino}-5,6,7,8-tetrahydro-4H-cyclohepta[b]thiophene-3-carboxylate], the Ratio was determined as 1.9. The fold induction at 10 µM under setting [1] was 1.5.

As for `COC(=O)c1c(NC(=O)CC2SC(=N)NC2=O)sc2c1CCC(OC)C2` (centres unmarked) [Example 37, methyl 2-{[(2-imino-4-oxo-1,3-thiazolidin-5-yl)acetyl]amino}-6-methoxy-4,5,6,7-tetrahydro-1-benzothiophene-3-carboxylate], the Ratio amounted to 1.7. Besides, under setting [1], the fold induction at 10 µM amounted to 1.5.

As to `COC(=O)c1c(NC(=O)CC2SC(=N)NC2=O)sc2c1CCCC2` (centres unmarked) [Example 38, methyl 2-{[(2-imino-4-oxo-1,3-thiazolidin-5-yl)acetyl]amino}-4,5,6,7-tetrahydro-1-benzothiophene-3-carboxylate], the Ratio came out at 1.4. Under setting [1], the fold induction at 10 µM is 1.3.

As for `COC(=O)c1sc(C(C)(C)C)cc1NC(=O)CC1SC(=N)NC1=O` (centres unmarked) [Example 42, methyl 5-tert-butyl-3-{[(2-imino-4-oxo-1,3-thiazolidin-5-yl)acetyl]amino}thiophene-2-carboxylate], the Ratio is listed as 1.7. Further, the fold induction at 10 µM under setting [1] amounted to 1.5.

As to `COC(=O)c1scc(C)c1NC(=O)CC1SC(=N)NC1=O` (centres unmarked) [Example 43, methyl 3-{[(2-imino-4-oxo-1,3-thiazolidin-5-yl)acetyl]amino}-4-methylthiophene-2-carboxylate], the Ratio came out at 1.0. The fold induction at 10 µM under setting [1] came out at 1.

`CCOC(=O)c1c(NC(=O)CC2SC(=N)NC2=O)sc2c1CCC2` (centres unmarked) [Example 44, ethyl 2-{[(2-imino-4-oxo-1,3-thiazolidin-5-yl)acetyl]amino}-5,6-dihydro-4H-cyclopenta[b]thiophene-3-carboxylate]: the Ratio worked out at 1.5. Moreover, the fold induction at 10 µM under setting [1] amounted to 1.6.

Regarding `CCOC(=O)c1c(-c2ccccc2)csc1NC(=O)CC1SC(=N)NC1=O` (centres unmarked) [Example 45, ethyl 2-{[(2-imino-4-oxo-1,3-thiazolidin-5-yl)acetyl]amino}-4-phenyIthiophene-3-carboxylate], the Ratio turned out to be 1.0. The “Fold induction with SFRP-1” value under setting [1] worked out at 1.1 fold.

As to `CCOC(=O)c1c(-c2ccco2)csc1NC(=O)CC1SC(=N)NC1=O` (centres unmarked) [Example 46, ethyl 4-(2-furyl)-2-{[(2-imino-4-oxo-1,3-thiazolidin-5-yl)acetyl]amino}thiophene-3-carboxylate], the Ratio is 1.0. Further, the fold induction at 10 µM under setting [1] was 1.1.

`CCOC(=O)c1c(-c2ccc(F)cc2)csc1NC(=O)CC1SC(=N)NC1=O` (centres unmarked) [Example 47, ethyl 4-(4-fluorophenyl)-2-{[(2-imino-4-oxo-1,3-thiazolidin-5-yl)acetyl]amino}thiophene-3-carboxylate]: the Ratio turned out to be 1.0. Also, the fold induction at 10 µM under setting [1] is 1.1.

For `CCOC(=O)c1c(NC(=O)CC2SC(=N)NC2=O)sc(C)c1-c1ccccc1` (centres unmarked) [Example 48, ethyl 2-{[(2-imino-4-oxo-1,3-thiazolidin-5-yl)acetyl]amino}-5-methyl-4-phenylthiophene-3-carboxylate], the Ratio worked out at 1.8. Moreover, the fold induction at 10 µM under setting [1] was found to be 1.6.

As for `N#Cc1c(NC(=O)CC2SC(=N)NC2=O)sc2c1CCCC2` (centres unmarked) [Example 49, N-(3-cyano-4,5,6,7-tetrahydro-1-benzothien-2-yl)-2-(2-imino-4-oxo-1,3-thiazolidin-5-yl)acetamide], the Ratio was 1.2. Also, under setting [1], the fold induction at 10 µM worked out at 1.6.

In the case of `COC(=O)c1ccccc1NC(=O)CC1SC(=N)NC1=O` (centres unmarked) [Example 50, methyl 2-{[(2-imino-4-oxo-1,3-thiazolidin-5-yl)acetyl]amino}benzoate], the Ratio was 1.0. Also, the fold induction at 10 µM under setting [1] stood at 1.1.

Take `CCOC(=O)c1ccccc1NC(=O)CC1SC(=N)NC1=O` (centres unmarked) [Example 51, ethyl 2-{[(2-imino-4-oxo-1,3-thiazolidin-5-yl)acetyl]amino}benzoate]: the Ratio was determined as 1.1. Also, the fold induction at 10 µM under setting [1] came out at 1.1.
